Source: publication PMC6222422, “Synthesis and Biological Evaluation of Novel Indole-Derived Thioureas” (Molecules : A Journal of Synthetic Chemistry and Natural …, 2018)

Experiments:
[1] = tested on: VV; assay: microbe, parasite or virus in culture; assay type: cell-based; conditions: Orthopoxvirus vaccinia, Vero 76, read-out: VV EC50
[2] = tested on: S. aureus NCTC 4163; assay: MIC, twofold serial agar dilution; assay type: cell-based; conditions: Staphylococcus aureus, NCTC4163, 18 h, 35 °C, read-out: minimal inhibitory concentrations (MIC)
[3] = tested on: M. luteus ATCC 10240; assay: disc diffusion method; assay type: cell-based, Micrococcus luteus; conditions: Micrococcus luteus, ATCC10240, applied 400 µg per disc, dash = lack of the growth inhibition area, read-out: diameter of growth inhibitory zone (GIZ)
[4] = tested on: S. aureus ATCC 29213; assay: disc diffusion method; assay type: cell-based, Staphylococcus aureus; conditions: Staphylococcus aureus, ATCC29213, applied 400 µg per disc, dash = lack of the growth inhibition area, read-out: diameter of growth inhibitory zone (GIZ)
[5] = tested on: B. subtilis ATCC 6633; assay: disc diffusion method; assay type: cell-based, Bacillus subtilis; conditions: Bacillus subtilis, ATCC6633, applied 400 µg per disc, dash = lack of the growth inhibition area, read-out: diameter of growth inhibitory zone (GIZ)
[6] = tested on: YFV; assay: microbe, parasite or virus in culture; assay type: cell-based; conditions: Yellow fever virus, BHK, read-out: YFV EC50
[7] = tested on: S. aureus NCTC 4163; assay: disc diffusion method; assay type: cell-based, Staphylococcus aureus; conditions: Staphylococcus aureus, NCTC4163, applied 400 µg per disc, dash = lack of the growth inhibition area, read-out: diameter of growth inhibitory zone (GIZ)
[8] = tested on: S. aureus ATCC 25923; assay: disc diffusion method; assay type: cell-based, Staphylococcus aureus; conditions: Staphylococcus aureus, ATCC25923, applied 400 µg per disc, dash = lack of the growth inhibition area, read-out: diameter of growth inhibitory zone (GIZ)
[9] = tested on: HSV-1; assay: microbe, parasite or virus in culture; assay type: cell-based, human herpes 1; conditions: Human alphaherpesvirus 1, Vero 76, read-out: HSV-1 EC50
[10] = tested on: hospital methicillin-susceptible strains of S. aureus (MSSA); assay: MIC against hospital strains; conditions: Staphylococcus aureus
[11] = tested on: S. epidermidis ATCC 12228; assay: disc diffusion method; assay type: cell-based, Staphylococcus epidermidis; conditions: Staphylococcus epidermidis, ATCC12228, applied 400 µg per disc, dash = lack of the growth inhibition area, read-out: diameter of growth inhibitory zone (GIZ)
[12] = tested on: HIV-1; assay: microbe, parasite or virus in culture; conditions: Human immunodeficiency virus 1, MT4, read-out: HIV-1 EC50
[13] = tested on: S. aureus ATCC 6538; assay: MIC, twofold serial agar dilution; assay type: cell-based; conditions: Staphylococcus aureus, ATCC6538, 18 h, 35 °C, read-out: minimal inhibitory concentrations (MIC)
[14] = in vitro; conditions: Syrian hamster (Mesocricetus auratus)
[15] = tested on: Sb-1; assay: microbe, parasite or virus in culture; assay type: cell-based, poliovirus type-1; conditions: Enterovirus C, Vero 76, read-out: Sb-1 EC50
[16] = tested on: S. epidermidis (MRSE); assay: MIC against hospital strains; conditions: Staphylococcus epidermidis
[17] = tested on: B. cereus ATCC 11778; assay: MIC, twofold serial agar dilution; assay type: cell-based; conditions: Bacillus cereus, ATCC11778, 18 h, 35 °C, read-out: minimal inhibitory concentrations (MIC)
[18] = tested on: M. luteus ATCC 10240; assay: MIC, twofold serial agar dilution; assay type: cell-based; conditions: Micrococcus luteus, ATCC10240, 18 h, 35 °C, read-out: minimal inhibitory concentrations (MIC)
[19] = tested on: BVDV; assay: microbe, parasite or virus in culture; assay type: cell-based, bovine viral diarrhoea virus; conditions: Bovine viral diarrhea virus isolates and strains, MDBK, in Bos taurus, read-out: BVDV EC50
[20] = in vitro; conditions: African green monkey (Cercopithecus aethiops)
[21] = tested on: CV-B5; assay: microbe, parasite or virus in culture; assay type: cell-based, coxsackievirus B5; conditions: Enterovirus B, CVB5, Vero 76, read-out: CV-B5 EC50
[22] = tested on: methicillin-resistant strains of S. aureus (MRSA); assay: MIC against hospital strains; conditions: Staphylococcus aureus
[23] = in vitro; conditions: cattle (Bos taurus)
[24] = tested on: S. aureus ATCC 29213; assay: MIC, twofold serial agar dilution; assay type: cell-based; conditions: Staphylococcus aureus, ATCC29213, 18 h, 35 °C, read-out: minimal inhibitory concentrations (MIC)
[25] = tested on: S. aureus ATCC 25923; assay: MIC, twofold serial agar dilution; assay type: cell-based; conditions: Staphylococcus aureus, ATCC25923, 18 h, 35 °C, read-out: minimal inhibitory concentrations (MIC)
[26] = tested on: S. epidermidis ATCC 12228; assay: MIC, twofold serial agar dilution; assay type: cell-based; conditions: Staphylococcus epidermidis, ATCC12228, 18 h, 35 °C, read-out: minimal inhibitory concentrations (MIC)
[27] = tested on: B. cereus ATCC 11778; assay: disc diffusion method; assay type: cell-based, Bacillus cereus; conditions: Bacillus cereus, ATCC11778, applied 400 µg per disc, dash = lack of the growth inhibition area, read-out: diameter of growth inhibitory zone (GIZ)

S=C(NCCc1c[nH]c2ccccc12)Nc1cccc(Cl)c1 [Compound 14, 1-(2-(1H-Indol-3-yl)ethyl)-3-(3-chlorophenyl)thiourea]
> 6 µM: EC50 [6]
50 µg/mL: MIC [2] | MIC [13] | MIC ([16]; hospital S. epidermidis MRSE strain 436/11) | MIC ([16]; hospital S. epidermidis MRSE strain 438/11) | MIC [24] | MIC [25] | MIC [26]
9 ± 1.2 µM: EC50 [21]
12 mm: zone of inhibition at 400 µg/disc [5] | zone of inhibition at 400 µg/disc [11]
15 mm: zone of inhibition at 400 µg/disc [4] | zone of inhibition at 400 µg/disc [27]
32 µM: CC50 [20] | CC50 [23]
> 42 µM: EC50 [12]
6.25 µg/mL: MIC ([16]; hospital S. epidermidis MRSE strain 431/11)
25 µg/mL: MIC ([10]; hospital S. aureus MSSA strain 440/11) | MIC ([10]; hospital S. aureus MSSA strain 441/11) | MIC ([10]; hospital S. aureus MSSA strain 442/11) | MIC ([10]; hospital S. aureus MSSA strain 443/11) | MIC ([10]; hospital S. aureus MSSA strain 445/11) | MIC ([10]; hospital S. aureus MSSA strain 446/11) | MIC ([10]; hospital S. aureus MSSA strain 447/11) | MIC ([10]; hospital S. aureus MSSA strain 448/11) | MIC ([10]; hospital S. aureus MSSA strain 449/11) | MIC ([16]; hospital S. epidermidis MRSE strain 430/11) | MIC ([16]; hospital S. epidermidis MRSE strain 432/11) | MIC ([16]; hospital S. epidermidis MRSE strain 433/11) | MIC ([16]; hospital S. epidermidis MRSE strain 434/11) | MIC ([16]; hospital S. epidermidis MRSE strain 435/11) | MIC ([16]; hospital S. epidermidis MRSE strain 437/11) | MIC ([16]; hospital S. epidermidis MRSE strain 439/11) | MIC [17] | MIC ([22]; hospital S. aureus MRSA strain 389/10) | MIC ([22]; hospital S. aureus MRSA strain 390/10) | MIC ([22]; hospital S. aureus MRSA strain 391/10) | MIC ([22]; hospital S. aureus MRSA strain 392/10) | MIC ([22]; hospital S. aureus MRSA strain 393/10) | MIC ([22]; hospital S. aureus MRSA strain 394/10) | MIC ([22]; hospital S. aureus MRSA strain 399/10) | MIC ([22]; hospital S. aureus MRSA strain 450/11) | MIC ([22]; hospital S. aureus MRSA strain 451/11) | MIC ([22]; hospital S. aureus MRSA strain 452/11)
20 mm: zone of inhibition at 400 µg/disc [3]
14 mm: zone of inhibition at 400 µg/disc [8]
6 µM: CC50 [14]
> 32 µM: EC50 [1] | EC50 [9] | EC50 [15] | EC50 [19]
12.5 µg/mL: MIC ([10]; hospital S. aureus MSSA strain 444/11) | MIC [18]
13 mm: zone of inhibition at 400 µg/disc [7]
